Experimental data taken from patent US5874445A, “(+) -α- (2,3-dimethoxyphenyl)-1-(2-(4-fluorephenyl) ethyl)-4-piepridinemethanol” (Merrell Pharmaceutical, Inc., priority 1997, dated 1999).
Like-named read-outs stand apart in the source and are kept apart here.

Tests used:
5HT2 receptor = biological target: T1, 5HT2 receptor (Mus musculus, UniProt P35363); assay: (5-MeO-DMT) head twitch test; format: in vivo, mice; details: ip, read-out: ED50 FOR ABOLITION OF HEAD TWITCH
T1 construct: The administration of 5-methoxy-N,N-dimethyltryptamine 5-MeO-DMT to mice typically produces a characteristic head twitch in the mice; from tissue; host or cells: living mice (in vivo, endogenous receptor)
Method: Psychopharmacol., Vol. 3, pages 89-92, (1979). The administration of 5-methoxy-N,N-dimethyltryptamine 5-MeO-DMT to mice typically produces a characteristic head twitch in the mice. In this test, the mice are administered 5-MeO-DMT and a test compound. An absence of head twitches in the mice is considered to be predictive of the ability of the test compound to antagonize the 5HT2 receptor in vivo.

thrombus formation = details: canine models; Bush et al., Drug Development Research, Vol. 7, 319-340 (1986); cited from earlier work
coronary vessel = details: patients with stable angina; Golino et al, NEJM 1991; 324:641-648; cited from earlier work
[1] = test system: preference for both alcohol and cocaine; details: rodent model of drug abuse; Meert et al; cited from earlier work
coronary vessels = details: patients with stable angina, intracoronary infusion, McFadden et al, cited from earlier work
[2] = mice, 5-MeO-DMT induced head twitch

T1 sequence (P35363 whole entry): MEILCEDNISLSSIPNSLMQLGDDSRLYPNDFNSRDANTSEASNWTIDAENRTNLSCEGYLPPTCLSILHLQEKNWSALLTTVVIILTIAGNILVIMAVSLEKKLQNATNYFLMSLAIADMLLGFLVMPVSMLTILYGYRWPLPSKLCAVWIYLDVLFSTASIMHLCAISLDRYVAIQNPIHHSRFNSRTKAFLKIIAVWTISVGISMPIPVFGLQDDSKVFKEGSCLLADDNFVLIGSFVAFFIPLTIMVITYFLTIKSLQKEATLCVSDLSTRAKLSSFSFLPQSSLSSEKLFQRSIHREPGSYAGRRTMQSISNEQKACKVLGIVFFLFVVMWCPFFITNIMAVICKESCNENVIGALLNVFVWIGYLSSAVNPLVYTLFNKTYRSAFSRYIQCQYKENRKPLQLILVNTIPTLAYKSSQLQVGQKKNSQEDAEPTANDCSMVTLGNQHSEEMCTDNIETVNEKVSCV

SMILES: OC(c1ccccc1)C1CCN(CCc2ccccc2)CC1 (racemic) [Compound B racemic, α-phenyl-1-(2-phenylethyl)-4-piperidinemethanol]
- ED50 (5HT2 receptor; [2]): 3.28 mg/kg

SMILES: COc1cccc(C(O)C2CCN(CCc3ccccc3)CC2)c1OC (racemic) [Compound C racemic, α-(2,3-dimethoxyphenyl)-1-(2-phenylethyl)-4-piperidinemethanol]
- ED50 (5HT2 receptor): 2.04 mg/kg

SMILES: OC(c1ccccc1)C1CCN(CCc2ccccc2)CC1 (single isomer, unassigned) [Compound B (+)-isomer, α-phenyl-1-(2-phenylethyl)-4-piperidinemethanol]
- ED50 (5HT2 receptor; [2]): 0.87 mg/kg

SMILES: COc1cccc(C(O)C2CCN(CCc3ccc(F)cc3)CC2)c1OC (single isomer, unassigned) [Invention, (+)-α-(2,3-dimethoxyphenyl)-1-[2-(4-fluorophenyl)ethyl]-4-piperidinemethanol]
- ED50 (5HT2 receptor): 0.03 mg/kg

SMILES: O=C(c1ccc(F)cc1)C1CCN(CCn2c(=O)[nH]c3ccccc3c2=O)CC1 [Ketanserin]
- preventing thrombus formation (thrombus formation): extremely effective in preventing thrombus formation
- coronary vessel constriction (coronary vessel): blocked coronary vessel constriction in patients with stable angina

SMILES: Cc1nc2sccn2c(=O)c1CCN1CCC(=C(c2ccc(F)cc2)c2ccc(F)cc2)CC1 [ritanserin]
- preference for both alcohol and cocaine [1]: abolished the preference for both alcohol and cocaine

SMILES: NCCc1c[nH]c2ccc(O)cc12 [serotonin]
- anginal attacks during infusions (coronary vessels): experienced anginal attacks during these infusions
- constriction of the coronary vessels (coronary vessels; all concentrations tested, NEJM 1991, 324:648-654): induced constriction of the coronary vessels in these patients at all concentrations tested
